Patent US9567586B2, “EpCAM aptamer for detection of cancer stem cells” (DEAKIN UNIVERSITY, priority 2012, dated 2017)

Tested on: HEK293T sphere that does not express EpCAM
Assay: Penetration of HEK293T sphere (specificity)
Assay type: cell-based, human
Conditions: 4 h incubation, further 24 h culture
Experimental: After four hour incubation with EpCAM antibody or aptamer 23 separately, the tumor spheres were washed twice with PBS and were cultured for a further 24 h followed by confocal microscopy. Panel A: fluorescence image for aptamer 23. Panel B: phase contrast for tumor sphere. Panel C: fluorescence image for anti-EpCAM antibody. Panel D: phase contrast image for tumour sphere.
To study the ability of EpCAM aptamer or antibody to penetrate tumors, the inventors used a three-dimensional in vitro tumor sphere model. […] After incubating for the indicated time, the spheres were washed twice with PBS and imaged via fluorescence confocal microscopy. A phase contrast image of the sphere was also taken for each sample. […] A retention study was performed whereby the tumour spheres were incubated with EpCAM antibody, aptamer-23 or control aptamer for 4 h, after washing with PBS twice, the tumor spheres were incubated with the culture medium for a further 24 h followed by confocal microscopy.

## 5′-ACGUAUCCCUUUUCGCGUA-3′ (RNA aptamer, fluorescent dye conjugate used, modifications not given here, further chemistry not given here) [compound 23]
  binding to HEK293T sphere: minimal binding
